Values quoted from earlier work as cited in patent US20070298000A1, “High SPF transparent or translucent naturally derived, cytoprotective, UV radiation resistant compositions” (priority 2006, published 2007).

Legend:
[1] = system: uterine wet weight, cell height, cell proliferation; details: cell proliferation assays

Row | Structure (SMILES) | estrogenicity [1] | effect on growth of cancer cells / activity in cells (cancer cells)
1 | COc1ccc(C(=O)c2ccccc2)c(O)c1 [benzophenone-s] | highly estrogenic | made cancer cells grow more rapidly
2 | Cc1ccc(C=C2C(=O)C3(C)CCC2C3(C)C)cc1 (stereo not drawn) [4-methyl-benzylidene camphor, 3-(4-methylbenxylidene) camphor] | highly estrogenic | made cancer cells grow more rapidly
3 | CC1CC(OC(=O)c2ccccc2O)CC(C)(C)C1 (stereo not drawn) [homosalate] | – | made cancer cells grow more rapidly
4 | CCCCC(CC)COC(=O)c1ccc(N(C)C)cc1 (stereo not drawn) [octyl-dimethyl-PABA] | – | made cancer cells grow more rapidly
